From patent publication US20230117361A1, “COMPOSITION COMPRISING MIR-335” (AGENCY FOR SCIENCE, TECHNOLOGY AND RESEARCH, priority 2019, published 2023)

Experiments:
[1] = tested on: promoter region of miR-335 and MEST; assay: Chromatin immunoprecipitation (ChIP)-qPCR at the promoter region of miR-335 and MEST; type: cell-based, human
Protocol: Cells were crosslinked with 1.5% formaldehyde for 10 minutes at 37° C. The reaction was stopped by adding glycine to the final concentration of 125 mM for 5 minutes at 37° C. Fixed cells were washed twice with ice-cold PBS, scraped and centrifuged. The pellets were then incubated with Buffer A (10 mM HEPES Ph7.9, 10 mM KCl, 0.1 mM EGTA, 1 mM DTT and 0.5 mM PMSF) supplemented with 1×protease inhibitor cocktail (Roche) and 10% glycerol on ice for 30 min, followed by 0.5% NP-40 for 5 minutes to lyse cytoplasmic membrane. The cells were then centrifuged at 1500×g for 5 minutes to pellet down nuclei. Nuclear pellet was then lysed in ChIP buffer (50 mM Tris pH 7.4, 150 mM NaCl, 5 mM EDTA, 0.5% NP-40, 1% Triton X-100, 0.05% SDS, 1×protease inhibitor cocktail). Nuclear chromatin was sheared by sonication for 15 min (30 sec on and 30 sec off) in Bioruptor® water bath sonicator. The sonicated samples were centrifuged, and the supernatant containing the sheared chromatin was harvested. For each ChIP reaction, 250 μl of chromatin extract was incubated with appropriate antibodies at 4° C. overnight on a rotary wheel. 50 μl of Protein A sepharose resin (precoated with 0.5% BSA and 0.2 mg/mL tRNA) was then added to the immunoprecipitated samples and incubated for 2 hours. […] Fold enrichment of the genes was calculated using ddCt method with input Ct values as normalization control.

N/TERT-1 keratinocytes [2] = assay: Expression of MEST and keratinocyte differentiation markers (IVL, SPRR2F, TGM1) in N/TERT-1 cells treated with HDAC inhibitors; type: cell-based, human
Protocol: Cells were fixed and permeabilized with ice-cold acetone/methanol for 10 minutes. After washing in phosphate buffered saline (PBS), the cells were incubated with 10% goat serum for 30 minutes. The cells were subsequently incubated with primary antibodies for 2 hours at room temperature or overnight at 4° C. After washing three times with PBS with 0.1% Tween 20, the cells were incubated in dark with Alexa Fluor secondary antibodies (Invitrogen) for an hour. Nuclei were stained using DAPI. After washing with PBS, the cells were mounted onto slides with FluorSave reagent (EMD Millipore). Images were taken with an FV1000 inverted confocal microscope (Olympus) using Olympus FluoView.
Total RNA was isolated using miRCURY™ RNA isolation kit (Exiqon). For miRNA quantification, cDNA was synthesized using Taqman® miRNA reverse transcription kit (Life Technologies) and the expression level of miRNAs was quantified by TaqMan Gene Expression Assays (Applied Biosystems) in 7900 fast RT-PCR system (Applied Biosystems) using Taqman miRNA-specific primers. For mRNA expression, cDNA was synthesized using SuperScript® III Reverse Transcriptase (Life Technologies) according to manufacturer's protocol. The expression levels of mRNAs were measured using SYBR green PCR Master Mix (Applied Biosystems). U6 and RPLP0 were used as endogenous normalization controls for miRNA and protein-coding genes, respectively. The expression of a gene/miRNA was defined from threshold cycle (Ct), and relative transcript abundance was calculated using ddCT method. All reactions were run in triplicates. The primers were designed using the Primer3 software and the NCBI design primer tools. The primers were checked for their GC content and any secondary structure formation using OligoCalc.
A panel of 42 HDAC inhibitors (HDACi) covering the majority of type I, II and pan HDACis were purchased from Selleckchem. N/TERT-1 grown to confluence were treated with HDACi at a final concentration of 1 μM from a 100 μM stock. Control wells were treated with DMSO at a final concentration of 1%. […]

miR-335 = miR-335 expression in N/TERT-1 cells treated with HDAC inhibitors (qRT-PCR, in situ hybridization); type: cell-based, human
Protocol: Paraffin wax-embedded skin tissue sections (5 μm) were dewaxed, rehydrated and boiled in pre-treatment solution (Panomics) for 5 minutes and subsequently treated with protease (Panomics) for 30 minutes at 37° C. Locked nucleic acid (LNA) probes were then added to the sections and incubated at 51° C. for 4 hours. The LNA probes used are specific to miR-335 and scrambled (non-targeting) sequences and are 5′ and 3′ digoxigenin- (DIG-) labelled. After washing the sections sequentially with 5× saline-sodium citrate (SSC), 1×SSC and 0.3×SSC buffer, they were blocked with 10% goat serum and incubated with anti-DIG alkaline phosphatase (Roche) overnight at 4° C. Fast Red Substrate (Panomics) were used to detect miRNA-bound LNA probes. […]
Total RNA was isolated using miRCURY™ RNA isolation kit (Exiqon). For miRNA quantification, cDNA was synthesized using Taqman® miRNA reverse transcription kit (Life Technologies) and the expression level of miRNAs was quantified by TaqMan Gene Expression Assays (Applied Biosystems) in 7900 fast RT-PCR system (Applied Biosystems) using Taqman miRNA-specific primers. […] The expression levels of mRNAs were measured using SYBR green PCR Master Mix (Applied Biosystems). […] The expression of a gene/miRNA was defined from threshold cycle (Ct), and relative transcript abundance was calculated using ddCT method. […]

AD-like symptoms = details: mice, two independent studies [24, 25]; cited from earlier work
human skin biopsies = assay: Ex-vivo human skin organ culture model, topical treatment
Protocol: Paraffin wax-embedded skin tissue sections (5 μm) were dewaxed, rehydrated and boiled in pre-treatment solution (Panomics) for 5 minutes and subsequently treated with protease (Panomics) for 30 minutes at 37° C. Locked nucleic acid (LNA) probes were then added to the sections and incubated at 51° C. for 4 hours. The LNA probes used are specific to miR-335 and scrambled (non-targeting) sequences and are 5′ and 3′ digoxigenin- (DIG-) labelled. After washing the sections sequentially with 5× saline-sodium citrate (SSC), 1×SSC and 0.3×SSC buffer, they were blocked with 10% goat serum and incubated with anti-DIG alkaline phosphatase (Roche) overnight at 4° C. Fast Red Substrate (Panomics) were used to detect miRNA-bound LNA probes. Tissue sections were counterstained with 4′,6-diamidino-2-phenylindole dihydrochloride (DAPI) (Sigma-Aldrich) and mounted with FluorSave™ reagent (EMD Millipore). The slides were examined with an FV1000 inverted confocal microscope (Olympus) and images were acquired using Olympus FluoView with TRITC and DAPI filters.
Paraffin wax-embedded skin tissue sections (5 μm) were dewaxed and rehydrated through decreasing concentration of ethanol. Endogenous peroxidases in tissue sections were quenched by 3% H2O2 in absolute methanol for 30 minutes. The sections were then boiled in antigen retrieval solution (pH 6, DAKO). Sections were then blocked in 10% goat serum for 30 minutes and incubated with primary antibodies overnight at 4° C. After incubation with primary antibodies, tissues were incubated with anti-rabbit or -mouse Envision-labelled polymer reagents (DAKO) for 1 hour at room temperature. The staining was visualized by 3,3′-diaminodbenzidine (DAB) substrate chromogen kit (DAKO). Slides were counterstained with haematoxylin and examined with a Zeiss AxioImager Z1 upright light microscope after mounting with CytosealTM60 mounting medium (Richard Allan Scientific). Images were acquired using Zeiss Zen software.
Total RNA was isolated using miRCURY™ RNA isolation kit (Exiqon). For miRNA quantification, cDNA was synthesized using Taqman® miRNA reverse transcription kit (Life Technologies) and the expression level of miRNAs was quantified by TaqMan Gene Expression Assays (Applied Biosystems) in 7900 fast RT-PCR system (Applied Biosystems) using Taqman miRNA-specific primers. For mRNA expression, cDNA was synthesized using SuperScript® III Reverse Transcriptase (Life Technologies) according to manufacturer's protocol. The expression levels of mRNAs were measured using SYBR green PCR Master Mix (Applied Biosystems). […] The expression of a gene/miRNA was defined from threshold cycle (Ct), and relative transcript abundance was calculated using ddCT method. […]

N/TERT-1 cells = assay: HDAC inhibitor screening: toxicity, growth arrest and differentiation; type: cell-based, human; details: HDACi 1 μM, 48 hrs
Protocol: A panel of 42 HDAC inhibitors (HDACi) covering the majority of type I, II and pan HDACis were purchased from Selleckchem. N/TERT-1 grown to confluence were treated with HDACi at a final concentration of 1 μM from a 100 μM stock. Control wells were treated with DMSO at a final concentration of 1%. After 48 hrs of treatment, cells were either processed for total RNA isolation or fixed and stained for human involucrin by immunocytochemistry.

N/TERT-1 keratinocytes [3] = assay: Cornified envelope assay; type: cell-based, human; details: N/TERT-1 treated with HDAC inhibitor vs control, FIG. 6C, 6D
Protocol: N/TERT-1 keratinocytes were grown in DF-K media until confluent, and then shifted to high Ca^2+ conditions (1.5 mM) for a further 7 days in fresh DF-K media to induce terminal differentiation and cornified envelope formation, and the number of cornified envelopes (CEs) assessed following the method of Rice et al. In brief, cells were trypsinized and resuspended at 2.0×10^6 cells/ml in dissociation buffer containing 0.1 M Tris-HCl buffer pH 8.0, 2% SDS and 20 mM dithiothreitol. CEs were harvested by boiling the samples for 15 minutes at 100° C. Detergent- and reducing agent-resistant CEs were collected as an insoluble pellet by centrifugation at 4000×g for 10 minutes. CEs were counted with a hemocytometer, and CE formation was expressed as a percentage of input cell number.

CCCC(=O)[O-].[Na+] [sodium butyrate]
enrichment of H3K4ac at the upstream region of MEST and miR-335 ([1]; N/TERT-1, ChIP, FIG. 5D): significant increase in the enrichment of H3K4ac | HDAC2 enrichment in the promoter region of miR-335 ([1]; keratinocytes, ChIP): reduced | relative expression of MEST (N/TERT-1 keratinocytes [2]; N/TERT-1, qRT-PCR, FIG. 5C): significantly increased MEST expression | relative transcript abundance of differentiation markers IVL, SPRR2F and TGM1 (N/TERT-1 keratinocytes [2]; N/TERT-1, qRT-PCR, FIG. 5F): significant upregulation | relative expression of miR-335 (miR-335; N/TERT-1 keratinocytes, qRT-PCR, FIG. 5B): significant miR-335 upregulation

CC(/C=C/C(=O)NO)=C\[C@@H](C)C(=O)c1ccc(N(C)C)cc1 [TSA, trichostatin A]
development of AD-like symptoms (AD-like symptoms): suppress the development of AD-like symptoms

O=C(/C=C/c1cccc(S(=O)(=O)Nc2ccccc2)c1)NO [belinostat, (E)-N-hydroxy-3-(3-(N-phenylsulfamoyl)phenyl)acrylamide]
expression of miR-335 in epidermal layers by in situ hybridization (human skin biopsies; human skin biopsies vs mock treated skin, FIG. 6F): higher expression of miR-335 | levels of IVL by immunohistochemistry (human skin biopsies; human skin biopsies, FIG. 6G): significant increase in the levels of IVL | filaggrin (FLG) protein by immunohistochemistry (human skin biopsies; human skin biopsies, FIG. 11): induced significant levels of filaggrin | expression of miR-335 by quantitative RT-PCR (human skin biopsies; human skin biopsies, topical in acetone, 1 mM, daily for six days, FIG. 6E): significant expression of miR-335 | toxicity (N/TERT-1 cells): low toxicity | number of cornified envelopes (CEs) (N/TERT-1 keratinocytes [3]): increased number of CEs | expression of IVL by immunocytochemistry (N/TERT-1 keratinocytes [2]; N/TERT-1 cells vs control cells, FIG. 6B lower panel): significant expression of IVL | expression of miR-335 by in situ hybridization (miR-335; N/TERT-1 cells, FIG. 6B upper panel): Induced expression of miR-335
